Read-outs that look alike come from different tables or passages of the source.
Legend:
[1] = target: T1, adenosine A1 receptor (Rattus norvegicus, UniProt P25099); test: Adenosine A1 receptor binding (RBA-1), displacement of [3H]-CHA
T1 construct: Whole brain minus cerebellum and brainstem from male Long Evans rats (150-200 g) was homogenized; from tissue; host or cells: rat whole brain minus cerebellum and brainstem, male Long Evans
T1 sequence (P25099 1-326): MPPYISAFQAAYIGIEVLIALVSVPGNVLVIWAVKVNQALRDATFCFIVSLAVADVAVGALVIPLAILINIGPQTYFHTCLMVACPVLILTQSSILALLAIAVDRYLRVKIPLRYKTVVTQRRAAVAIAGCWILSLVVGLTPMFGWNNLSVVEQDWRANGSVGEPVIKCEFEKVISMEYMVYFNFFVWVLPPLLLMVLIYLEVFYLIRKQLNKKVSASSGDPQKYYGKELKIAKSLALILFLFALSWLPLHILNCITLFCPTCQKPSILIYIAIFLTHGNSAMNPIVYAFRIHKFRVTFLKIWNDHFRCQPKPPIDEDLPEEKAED
Experimental: Whole brain minus cerebellum and brainstem from male Long Evans rats (150-200 g) was homogenized in 30 volumes of ice-cold 0.05M Tris-HCl buffer pH 7.7 using a Brinkman Polytron PT-10, (setting number 6 for 20 seconds) and centrifuged for ten minutes at 20,000×g (Sorvall RC-2), 4° C. The supernatant was discarded, and the pellet was resuspended and centrifuged as before. The pellet was resuspended in 20 ml Tris-HCl buffer containing two International Units/ml of adenosine deaminase (Sigma type III from calf intestinal mucosa), incubated at 37° C. for 30 minutes, then subsequently at 0° C. for ten minutes. The homogenate was again centrifuged, and the final pellet was resuspended in ice-cold 0.05M Tris-HCl buffer pH 7.7 to a concentration of 20 mg/ml original wet tissue weight and used immediately.
Tissue homogenate (10 mg/ml) was incubated in 0.05M Tris-HCl buffer pH 7.7 containing 1.0 nM [^3 H]-N^6 -cyclohexyladenosine [^3 H]-CHA) with or without test agents in triplicate for one hour at 25° C. Incubation volume was 2 ml. Unbound [^3 H]-CHA was separated by rapid filtration under reduced pressure through Whatman glass fiber (GF/B) filters. The filters were rinsed three times with 5 ml of ice cold 0.05M Tris-HCl buffer pH 7.7. The radio-labeled ligand retained on the filter was measured by liquid scintillation spectrophotometry after shaking the filters for one hour or longer on a mechanical shaker in 10 ml of Beckman Ready-Solv HP scintillation cocktail.
Nonspecific binding was defined as the binding which occurred in the presence of 1 mM theophylline. […] The Scatchard plot was calculated by linear regression of the line obtained by plotting the amount of radioligand bound (pmoles/gram of tissue) versus [formula] Since the amount of radioligand bound was a small fraction of the total amount added, free radioligand was defined as the concentration (nM) of radioligand added to the incubation mixture. The Hill coefficient was calculated by linear regression of the line obtained by plotting the log of the bound radioligand vs the log of the [formula] The maximal number of binding sites (Bmax) was calculated from the Scatchard plot.

[2] = target: T2, adenosine A2 receptor (Rattus norvegicus, UniProt P30543); test: Adenosine A2 receptor binding (RBA-2), displacement of [3H]NECA
T2 construct: Brains were thawed and then kept on ice while the striata were dissected out; tissue Pel-Freez (Rogers, Ark.); host or cells: rat striatum (Sprague-Dawley brains; Long-Evans gave essentially identical results)
T2 sequence (P30543 whole entry): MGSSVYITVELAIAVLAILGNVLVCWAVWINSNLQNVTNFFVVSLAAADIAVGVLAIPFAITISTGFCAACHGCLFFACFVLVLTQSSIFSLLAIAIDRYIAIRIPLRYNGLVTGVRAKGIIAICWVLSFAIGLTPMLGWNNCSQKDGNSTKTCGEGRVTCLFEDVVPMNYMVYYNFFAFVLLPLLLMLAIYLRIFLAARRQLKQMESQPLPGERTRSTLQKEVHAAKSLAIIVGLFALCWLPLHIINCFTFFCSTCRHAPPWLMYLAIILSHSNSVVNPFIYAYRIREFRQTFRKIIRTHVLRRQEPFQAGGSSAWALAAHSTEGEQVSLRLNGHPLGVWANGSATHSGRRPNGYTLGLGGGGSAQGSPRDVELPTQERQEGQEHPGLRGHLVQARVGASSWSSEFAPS
Experimental: Brains from 200-500 g mixed sex Sprague-Dawley rats were purchased from Pel-Freez (Rogers, Ark.). […] Brains were thawed and then kept on ice while the striata were dissected out. […] The suspension was centrifuged at 50,000 xg for ten minutes, the supernatant discarded, the pellet resuspended in 10 vol ice-cold Tris as above, recentrifuged, resuspended at 1 g/5 ml, and stored in plastic vials at -70° C. […] When needed, tissue was thawed at room temperature, disrupted in a Polytron, and kept on ice until used.
All incubations were for 60 minutes at 25° C. in 12×75 mm glass tubes containing 1 ml Tris with 5 mg original tissue weight of rat weight of rat striatal membranes, 4 nM [^3 H]-N-ethyl adenosine-5'-carboxamide ([^3 H]NECA), 50 nM N^6 -cyclopentyladenosine (to eliminate A1 receptor binding), 10 mM MgCl2, 0.1 units/ml of adenosine deaminase and 1% dimethylsulfoxide. N^6 -Cyclopentyladenosine was dissolved at 10 mM in 0.02N HCl and diluted in Tris. […] Test compounds were dissolved at 10 mM in dimethylsulfoxide on the same day as the experiment, and diluted in dimethylsulfoxide to 100× the final incubation concentration. […] [^3 H]NECA was diluted to 40 nM in Tris. The membrane suspension (5 mg/0.79 ml) contained sufficient MgCl2 and adenosine deaminase to give 10 mM and 0.1 units/ml, respectively, final concentration in the incubation. […] After all additions, the rack of tubes was vortexed, and the tubes were then incubated for 60 min at 25° C. in a shaking water bath. The rack of tubes was vortexed an additional time halfway through the incubation.
Incubations were terminated by filtration through 2.4 cm GF/B filters under reduced pressure. Each tube was filtered as follows: the contents of the tube were poured onto the filter, 4 ml of ice-cold Tris were added to the tube and the contents poured onto the filter, and the filter was washed twice with 4 ml of ice-cold Tris. The filtration was complete in about twelve seconds.
Nonspecific binding was defined as binding in the presence of 100 μM N^6 -cyclopentyladenosine, and specific binding was defined as total binding minus nonspecific binding. The IC50 was calculated by weighted nonlinear least squares curve-fitting to the mass-action equation. [formula] where Y is cpm bound
T is cpm total binding without drug
S is cpm specific binding without drug
D is the concentration of drug and
K is the IC50 of the drug
Weighting factors were calculated under the assumption that the standard deviation was proportional to the predicted value of Y. Nonspecific binding was treated as a very large (infinite) concentration of drug in the computer analysis.

[3] = tested on: Swiss-Webster male mice; test: Mouse Activity and Screen Test (MAST): inhibition of spontaneous locomotor activity; type: in vivo; settings: 1 hour prior to testing
Experimental: Nine unfasted Swiss-Webster male mice weighing 20-30 g are equally divided into three groups for each drug dose to be tested. That is, data for each dose level was generated by three separate groups of three mice each. A minimum of three dose levels (10, 30, and 100 mg/kg) are tested for each drug. Treatments are administered intraperitoneally one hour prior to testing. All dosages are calculated as parent compound and given in volumes of 10 ml/kg. Compounds are dissolved or suspended in 0.2% Methocel. Control animals are injected with Methocel. Immediately following the screen test, the final phase of testing is initiated by placing each group of three mice in one actophotometer (Life Sciences, 22, 1067-1076, 1978). The actophotometer consists of a cylindrical chamber whose center is occupied by another cylinder which contains the illumination for six photocells located on the perimeter of the chamber. Six light-beam interruptions equal one count. Locomotor activity is recorded by computer at ten minute intervals for 60 minutes. Data: The data obtained from the screen test are expressed as percent of mice falling off the screen. Data derived from locomotor activity of drug treated mice are compared to the activity of vehicle treated animals and are expressed as percent inhibition of spontaneous locomotion. All percentages reported for inhibition of locomotion (LI) are based upon data accumulated for one hour. Both phases of testing are graded: A=60-100%; C=31-59%; and N=0-30%. An overall dose rating is obtained by the following criteria: […]

[4] = tested on: Swiss-Webster male mice; test: Mouse Activity and Screen Test (MAST): screen test failure; type: in vivo; settings: 1 hour prior to testing
Experimental: Nine unfasted Swiss-Webster male mice weighing 20-30 g are equally divided into three groups for each drug dose to be tested. That is, data for each dose level was generated by three separate groups of three mice each. A minimum of three dose levels (10, 30, and 100 mg/kg) are tested for each drug. Treatments are administered intraperitoneally one hour prior to testing. All dosages are calculated as parent compound and given in volumes of 10 ml/kg. Compounds are dissolved or suspended in 0.2% Methocel. Control animals are injected with Methocel. Testing: A two part testing procedure is started one hour postinjection. First, the screen test (ST) is performed (see Pharmac. Biochem. Behav. 6, 351-353, 1977). Briefly this test consists of placing mice on individual wire screens which are then rotated 180 degrees at the start of a 60 second observation period. The number of mice falling off the inverted screen is recorded. Data: The data obtained from the screen test are expressed as percent of mice falling off the screen. Data derived from locomotor activity of drug treated mice are compared to the activity of vehicle treated animals and are expressed as percent inhibition of spontaneous locomotion. All percentages reported for inhibition of locomotion (LI) are based upon data accumulated for one hour. Both phases of testing are graded: A=60-100%; C=31-59%; and N=0-30%. An overall dose rating is obtained by the following criteria: […]

[5] = 1.0 nM [3H]-CHA, rat whole brain minus cerebellum and brainstem, read-out: RBA-1 (IC50, adenosine A1 receptor affinity)

SMILES	IC50 [1, 5]	IC50 ([2]; 4 nM [3H]NECA, 50 nM N6-cyclopentyladenosine, rat striatal membranes, read-out: RBA-2 (IC50, adenosine A2 receptor affinity))	Inhibition of Mouse Locomotor Activity ([3]; 3.0 mg/kg i.p.)	Inhibition of Mouse Locomotor Activity ([3]; 10 mg/kg i.p.)	Inhibition of Mouse Locomotor Activity ([3]; 30 mg/kg i.p.)	Screen Test Failure ([4]; 3.0 mg/kg i.p.)	Screen Test Failure ([4]; 10 mg/kg i.p.)	Screen Test Failure ([4]; 30 mg/kg i.p.)	inhibition at 100 µM ([2]; at 1 × 10^-4 M, read-out: RBA-2 Inhib)	IC50 [1]	IC50 [2]	Inhibition of Mouse Locomotor Activity ([3]; 100 mg/kg i.p.)	Screen Test Failure ([4]; 100 mg/kg i.p.)
CC1(C)OC[C@H](CNc2ncnc3c2ncn3[C@@H]2O[C@H](CO)[C@@H](O)[C@H]2O)O1 [Example 6, (S)-N^6-[2,3-Dihydroxypropylisopropylidene]adenosine]	0.94 µM	20 µM	26%	47%	71%	0%	0%	0%	–	–	–	–	–
CC(C)CC(=O)OCC(CNc1ncnc2c1ncn2[C@@H]1O[C@H](COC(=O)CC(C)C)[C@@H](OC(=O)CC(C)C)[C@H]1OC(=O)CC(C)C)OC(=O)CC(C)C (stereo partly drawn) [Example 11, N-6[2,3-Dihydroxypropyl-2,3-di-O-isovaleroyl]-2',3',5'-tri-O-isovaleroyl adenosine]	–	–	59%	91%	79%	22%	55%	100%	–	–	–	–	–
C[C@H]1O[C@@H](n2cnc3c(NCC4COC(C)(C)O4)ncnc32)[C@H](O)[C@@H]1O (stereo partly drawn) [Example 7, (R,S)-N^6-[2,3-Dihydroxypropyl-isopropylidine]-5'-deoxyadenosine]	8.8 µM	–	13%	18%	69%	11%	0%	0%	23%	–	–	–	–
OC[C@H](O)CNc1ncnc2c1ncn2[C@@H]1O[C@H](CO)[C@@H](O)[C@H]1O [Example 2, (R)-N^6-[2,3-Dihydroxypropyl]adenosine]	–	–	–	100%	100%	–	100%	100%	–	0.0078 µM	11 µM	100%	100%
